Values quoted from earlier work in the CATMoS acute toxicity set (Mansouri et al. 2021).
Several values for one entry are separate records, joined by “and”; a condition that tells them apart may be missing. Identical values can stand only once.

Assay: rat acute oral toxicity
Details: in vivo

Compound | LD50
COC(=O)C1C2CC3c4[nH]c5cc(OC)ccc5c4CCN3CC2CC(OC2CCCCO2)C1OC (stereo unspecified) | 173 mg/kg
O=C1CCCCC1(CCN1CCCCCC1)C(=O)OCc1ccccc1 (stereo unspecified) | 450 mg/kg
CCCCCCCCCCCCCCCCCCOC(=O)Cc1ccc(N(CCCl)CCCl)cc1 | 200 mg/kg
Cc1cc(C(=O)c2ccccc2)ccc1N=Cc1ccc(OCCC(C)C)cc1 | 1500 mg/kg
CN(C)CCCOC1(Cc2ccccc2)CCCCCC1 | 414 mg/kg
COP(=S)(OC)SC1CCSc2ccccc21 (stereo unspecified) | 5 mg/kg
CCCOC(=O)CC(SP(=O)(OC)OC)C(=O)OCCC (stereo unspecified) | 360 mg/kg
CC[Si](OC(C)=O)(OC(C)=O)OC(C)=O | 1460 mg/kg
O=C1OCCC1N(C(=O)C1CC1)c1cccc(Cl)c1 (stereo unspecified) | 174 mg/kg
Cc1ccccc1C(O)(c1ccccc1)C(C)CN(C)C (stereo unspecified) | 185 mg/kg
CCCCC(CC)COP(=O)(O)O (stereo unspecified) | 3450 mg/kg
CCCOCCOC(=O)C1=C(C)NC(C)=C(C(=O)OCCOCCC)C1c1cccc([N+](=O)[O-])c1 | 1470 mg/kg
CCOS(=O)(=O)OCC | 880 mg/kg
CC(=O)Nc1ccc2c(c1)OCO2 | 1000 mg/kg
C=CCOC(=O)C=Cc1ccccc1 | 1520 mg/kg
CCCCC[Si](OCC)(OCC)OCC | 20000 mg/kg
CCN(Cc1ccncc1)N=O | 40 mg/kg
CCN(N=O)C(N)=O | 300 mg/kg
NC(=S)NNCNNC(N)=S | 6.35 mg/kg
OC1(c2ccc(Cl)cc2)CCNCC1 | 465 mg/kg
COc1ccc(-c2ccccc2)cc1CN1CCCC1 | 28 mg/kg

Compound | LD50
CCCCCCCCN1CCCC1=O | 2050 mg/kg
O=C(O)c1ccccc1C(=O)c1ccccc1 | 4600 mg/kg
CC(C)/N=C(\N)NC(C)C | 2880 mg/kg
CCOC(=O)CN=C=O | 1130 mg/kg
C1C[SiH2]C1 | 1540 mg/kg
Clc1cc2c(c(Cl)c1Cl)Oc1cc(Cl)c(Cl)c(Cl)c1O2 | 0.887 mg/kg
CC1=NN(c2ccccc2)C(=O)C1C=O (stereo unspecified) | 716 mg/kg
CCOC(C1=NCC(CC)(CC)CN1)c1ccccc1 (stereo unspecified) | 250 mg/kg
Cc1ccnc(SCCC(F)=C(F)F)n1 | 844 mg/kg
CS(=O)(=O)c1ccc(CN(CCO)C(=O)C(Cl)Cl)cc1 | 12500 mg/kg
CS(=O)(=O)c1ccccc1 | 1470 mg/kg
C=CCNC(=S)Nc1ccccc1 | 750 mg/kg
CC(O)CF (stereo unspecified) | 3260 mg/kg
CC(C)NCC(O)c1ccccc1Cl (stereo unspecified) | 450 mg/kg and 445 mg/kg
CCC(SC(C)=NOC(=O)NC)C(N)=O (stereo unspecified) | 14.1 mg/kg
CCOC(C1=NCCCN1)c1ccccc1 (stereo unspecified) | 1540 mg/kg
Cc1onc2c(=O)n(-c3ccccc3)nc(-c3ccccc3)c12 | 1000 mg/kg
O=C1c2ccccc2C(=O)C1c1ccc(Cl)cc1 | 290 mg/kg
CCCC(C)C(=O)Nc1ccc(C)c(Cl)c1 (stereo unspecified) | 5100 mg/kg
CNC(=O)Oc1ccc(CCC#N)cc1 | 620 mg/kg
CNC(=O)Oc1ccc(C)c2c1OC(C)(C)C2 | 12 mg/kg

Compound | LD50
Cc1ccc(CO)cc1 | 3900 mg/kg
CNC1(c2ccccc2Cl)CCCCC1=O (stereo unspecified) | 447 mg/kg
Cc1ccc(C#N)cc1 | 3800 mg/kg
COc1cc2c(cc1OC)[C@@]13CCN4CC5=CCO[C@H]6CC(=O)N2[C@H]1[C@H]6[C@H]5C[C@H]43 | 1 mg/kg
C[C@@H]1C[C@H]2[C@@H]3CCC4=CC(=O)C=C[C@]4(C)[C@@]3(F)[C@@H](O)C[C@]2(C)[C@@]1(O)C(=O)COC(=O)c1ccncc1 | 3560 mg/kg
CC(C)NCC(O)c1ccc2ccccc2c1 (stereo unspecified) | 900 mg/kg
COP(N)(=S)Oc1ccccc1C(=O)OC(C)C (stereo unspecified) | 50 mg/kg
SCc1cnccn1 | 1700 mg/kg
O=C(O)CCCCCCl | 3080 mg/kg
CCOP(=O)(NC)Oc1ccc(SC)c(C)c1 (stereo unspecified) | 5 mg/kg
O=C(NP(=O)(N1CC1)N1CC1)c1cc(I)ccc1I | 500 mg/kg
COc1ccc2ccc(=O)oc2c1CC=C(C)C | 2900 mg/kg
CCCSP(=O)(OC)SCCC | 6.8 mg/kg
COC(=O)c1ccccc1C(=O)c1ccc(OCCN2CCCCC2)cc1 | 3600 mg/kg
COc1ccc(C(O)(c2cncnc2)C2CC2)cc1 (stereo unspecified) | 4500 mg/kg
CBr | 214 mg/kg
CC(=O)OCc1ccc2c(c1)OCO2 | 2100 mg/kg
COP(=O)(OC)Oc1ccc([N+](=O)[O-])cc1 | 3.27 mg/kg
COP(=S)(OC)Oc1ccc([N+](=O)[O-])c(SC(C)C)c1 | 1140 mg/kg
